Experimental findings from patent US11111463B2, “Solid cleansing compositions with taurine and methods thereof” (Colgate-Palmolive Company, priority 2016, dated 2021) are described below.

Each structure is given as a SMILES string.

This data set in a line: MTT colorimetric assay, dose response, cell viability. The following applies: human, HaCat cells, untreated = 100. The class given is cell-based. How it is done:
An MTT colorimetric assay (HaCat Cells) dose response experiment was conducted to analyze cell viability, or the percentage of cells present after treatment. Particularly, the MTT colorimetric assay was conducted to determine cell viability of the anhydrous 2:1 urea to taurine ionic liquid (2) of Example 1 in comparison to taurine. The HaCat Cells were 60-70% confluent, and a PBS buffer was used for serial volumetric dilutions. The results of the MTT colorimetric assay are summarized in Table 6, and highlight the effectiveness of the ionic liquid form. Cell viability greater than 100% indicates cell growth or proliferation, and cell viability less than 100% indicates cell death.

Regarding `NCCS(=O)(=O)O` [Taurine, 2-aminoethanesulfonic acid], for the setting “concentration of taurine 0.00001 w/w %”, the viability – broadly, a read-out of living cells in per cent, often relative to untreated cells – at 1e-05 w/w % is 137%. For the same molecule, the viability at 0.0001 w/w % (concentration of taurine 0.00010 w/w %) was determined as 120%. Moreover, for the setting “concentration of taurine 0.00100 w/w %”, the viability at 0.001 w/w % came to 141%. The viability at 0.01 w/w % (concentration of taurine 0.01000 w/w %) was 147%. In addition, under “concentration of taurine 0.10000 w/w %”, the viability at 0.1 w/w % stood at 99%.
